We go through 5 molecules from patent publication US20060148871A1, “Metabolic stabilization of substituted adamantane” (priority 2005, published 2006).

Holding throughout (format): in vitro ADME
The nature of series [1]: Metabolic stability screen, human liver microsomes. The following applies: for HLM % turnover: 10 μM substrate, 30 min, 37° C., 1 mM NADPH. How it is done: (§1) Each substrate (10 μM) was incubated with microsomal protein (0.1-0.5 mg/ml) in 50 mM potassium phosphate buffer (pH 7.4) in 48-Well plate. The enzyme reaction was initiated by the addition of 1 mM NADPH, then incubated at 37° C. in a Forma Scientific incubator (Marietta, Ohio, USA) with gentle shaking. The reactions were quenched by the addition of 800 μl of ACN/MeOH (1:1, v/v), containing 0.5 μM of internal standard (IS), after 30 min incubation. Samples were then filtered by using Captiva 96-Well Filtration (Varian, Lake Forest, Calif., USA) and analyzed by LC/MS (mass spectrometry). Liver microsomal incubations were conducted in duplicate.
The parent remaining in the incubation mixture was determined by LC/MS. The LC/S system consisted of an Agilent 1100 series (Agilent Technologies, Waldbronn, Germany) and API 2000 (MDS SCIEX, Ontario, Canada). A Luna C8(2) (50×2.0 mm, particle size 3 μm, Phenomenex, Torrance, Calif., USA) was used to quantify each compound at ambient temperature. The mobile phase consisted of (A): 10 mM NH4AC (pH 3.3) and […]: 100% ACN and was delivered at a flow rate of 0.2 ml/min. Elution was achieved using a linear gradient of 0-100% B over 3 min, then held 100% B for 4 min, and returned to 100% A in 1 min. The column was equilibrated for 7 min before the next injection.
(§2) The peak area ratios (each substrate over IS) at each incubation time were expressed as the percentage of the ratios (each substrate over IS) of the control samples (0 min incubation). The parent remaining in the incubation mixture was expressed as the percentage of the values at 0 min incubation. The percentage turnover is calculated using the following equation (Y% turnover=100% […]−X% parent remaining) and is recorded as the percentage turnover in the Table 1.
For orientation: Microsomes from liver hold many membrane-bound enzymes, among them those of drug oxidation.

Series [2] can be described thus: In vitro metabolic half-life study, mouse liver microsomes. The following applies: 1 μM. As to the method:
(§3) Example 5 (1 μM) was incubated with microsomal protein (0.5-1.0 mg/ml) in 50 mM potassium phosphate buffer (pH 7.4). After 5 minutes, preincubation at 37° C. in a shaking water bath, the enzyme reaction was initiated by the addition of 1 mM NADPH. Aliquots (200 μl) were removed and added to 100 μl of ACN/MeOH (1:1, v/v), containing 0.5 μM of IS, at the following time points: 0, 5, 10, 15, 20 and 30 min. Samples were then centrifuged at 14000×g for 10 min and the supernatant was analyzed by LC/MS. Additionally, Example 5 (1 μM) was also incubated with hepatocytes in complete culture medium (Waymouth MB 752/1). The reaction was terminated at 0, 1, 3 and 6 hours with the addition of 250 μl of ACN/MeOH (1:1, v/v). Samples were centrifuged and the supernatant was analyzed by LC/MS as described above. […]
(§4) The parent remaining in the incubation mixture was determined by LC/MS. […] A Luna C8(2) (50×2.0 mm, particle size 3 μm, Phenomenex, Torrance, Calif., USA) was used to quantify each compound at ambient temperature. […]
(§5) In vitro half-life of substrate depletion was determined and converted to hepatic intrinsic clearance (Obach R Scott: Prediction of human clearance of twenty-nine drugs from hepatic microsomal intrinsic clearance data: an examination of in vitro half-life approach and nonspecific binding to microsomes. Drug metabolism and Disposition. 1999, 27:1350-1359).

Series [3] can be described thus: Metabolic stability screen, mouse liver microsomes. To be noted: 10 μM substrate, 30 min, 37° C., 1 mM NADPH. As to the method:
as §1, §4, §2

Series [4] is described as follows: In vitro metabolic half-life study, human liver microsomes. The following applies: 1 μM. How it is done: as §3, §4, §5
Series [5] can be described thus: In vitro metabolic half-life study, rat hepatocytes. The following applies: 1 μM. As to the method: as §3, §4, §5
Series [6] is described as follows: In vitro metabolic half-life study, monkey hepatocytes. The following applies: 1 μM. How it is done: as §3, §4, §5
The nature of series [7]: In vitro metabolic half-life study, dog liver microsomes. As to the method: as §3, §4, §5
Series [8] in a line: Metabolic stability screen, rat liver microsomes. The following applies: 10 μM substrate, 30 min, 37° C., 1 mM NADPH. How it is done: as §1, §4, §2
Series [9] in a line: In vitro metabolic half-life study, dog hepatocytes. To be noted: 1 μM. How it is done: as §3, §4, §5
Series [10] is described as follows: In vitro metabolic half-life study, rat liver microsomes. To be noted: 1 μM. How it is done: as §3, §4, §5
A short description of series [11]: In vitro metabolic half-life study, human hepatocytes. To be noted: 1 μM. As to the method: as §3, §4, §5
Series [12] can be described thus: In vitro metabolic half-life study, mouse hepatocytes. The following applies: 1 μM. How it is done: as §3, §4, §5
The nature of series [13]: In vitro metabolic half-life study, monkey liver microsomes. As to the method: as §3, §4, §5

Each structure is given as a SMILES string.

For the molecule `CC(C)(C(=O)NC1C2CC3CC(C2)CC1C3)c1ccccc1` (centres unmarked) [Example 1, N-2-adamantyl-2-methyl-2-phenylpropanamide], in series [1], the “Metabolism in human liver microsomes (HLM), in words” value (“Metabolism in human liver microsomes” below) is recorded as “rapidly metabolized” and the HLM % turnover was 83%.

For `CC(C)(C(=O)NC1C2CC3CC(C2)CC1C3)c1ccc(Cl)cc1` (centres unmarked) [Example 2, N-2-adamantyl-2-(4-chlorophenyl)-2-methylpropanamide], in series [1], the “Metabolism in human liver microsomes” value is reported as “rapidly metabolized” and the HLM % turnover turned out to be 84%.

With `O=C(NC1C2CC3CC(C2)CC1C3)C1(c2ccccc2)CC1` (centres unmarked) [Example 3, N-2-adamantyl-1-phenylcyclopropanecarboxamide], in [1], the “Metabolism in human liver microsomes” value is “rapidly metabolized” and the HLM % turnover was 62%.

In the case of `O=C(NC1C2CC3CC(C2)CC1C3)C1(c2ccc(Cl)cc2)CC1` (centres unmarked) [Example 4, N-2-adamantyl-1-(4-chlorophenyl)cyclopropanecarboxamide], in series [1], the “Metabolism in human liver microsomes” value is “rapidly metabolized” and the HLM % turnover is on record as 68%.

Regarding `CC(C)(C(=O)NC1C2CC3CC1CC(C(=O)O)(C3)C2)N1CCN(c2ccc(C(F)(F)F)cn2)CC1` (centres unmarked) [Example 5, E-4-{2-Methyl-2-[4-(5-trifluoromethyl-pyridin-2-yl)-piperazin-1-yl]-propionylamino}-adamantane-1-carboxylic acid], the “Liver microsomal intrinsic clearance (CLint)” value was determined as 127 mL/min/kg in series [2]; 4.83 mL/min/kg in series [4]; 7.5 mL/min/kg in series [7] (dog microsomes, 1 μM); 40 mL/min/kg in [10]; 31.5 mL/min/kg in series [13] (monkey microsomes, 1 μM). In series [3], this molecule came in with an MLM % turnover of 0%. The “Hepatocyte intrinsic clearance (CLint)” value is 5.17 mL/min/kg in series [5]; 4.67 mL/min/kg in [6]; 3.67 mL/min/kg in series [9]; 1.5 mL/min/kg in series [11]; 13.7 mL/min/kg in series [12]. In addition, the “Metabolic stability in liver microsomes, in words” value in series [7] (dog liver microsomes) and in series [13] (monkey liver microsomes) was “excellent metabolic stability” each time. Besides, in [8], the RLM % turnover was determined as 0%. Also, the HLM % turnover in series [1] is on record as 0%.
